Data published in US20030232400A1, “Methods of screening subjects for expression of soluble receptors of vascular endothelial growth factor (VEGF) for use in managing treatment and determining prognostic outcome” (priority 2002, published 2003).
“Also recorded” adds a separate entry of the source.

Key:
[1] = Phase II study RPI0003 (IFL + ANGIOZYME), adverse events; type: in vivo, human
Experimental: Beginning on study day 4, patients received daily doses of 100 mg/m^2 ANGIOZYME by subcutaneous injection. Unidimensional tumor measurements were obtained from CT scans after 12 and 24 weeks of treatment. Responses were then confirmed 4 weeks following initial response. ANGIOZYME treatment continued until disease progression.
Adverse event reporting for RPI0003 is ongoing for the 6 patients continuing to receive ANGIOZYME in the maintenance protocolis. […] One patient has discontinued RPI0003 due to an ISR.
Of the MedDRA organ system classes most likely to be affected by antiangiogenic drugs, only the vascular complications (DVT/PE) may appear in excess in this study. […] This observation was communicated to the FDA in September, 2002. Patients continue in the maintenance trial with all PEs and DVTs being classified as serious and ANGIOZYME-related to ensure complete reporting of these events.

[2] = tested on: HEY ovarian, SK-MEL-1 melanoma and ACHN renal carcinoma cell lines; assay: Murine dermis model, peritumoral vessels; type: in vivo
[3] = 13-week toxicology studies; type: in vivo; conditions: doses up to 300 mg/m^2/d
[4] = tested on: human KM12 colorectal cancer xenograft; assay: Human KM12 colorectal cancer xenograft, metastasis; type: in vivo, mice
Source text: (§1) A reduction of metastasis in a human KM12 colorectal cancer xenograft and reduced metastasis and increase in survival in the murine mammary (4T1) model were also observed with ANGIOZYME treatment.

[5] = Preclinical absorption after subcutaneous administration; type: in vivo; conditions: subcutaneous (SC) administration
Source text: as §1

LLC-HM primary tumor = LLC-HM primary tumor model, preclinical studies in mice; type: in vivo
[6] = tested on: late-stage metastatic breast cancer; assay: Phase II monotherapy trial RPI0001, tumor response; type: in vivo, human
Experimental: (§2) In a Phase II monotherapy ANGIOZYME trial, 45 late-stage metastatic breast cancer patients who had failed multiple prior treatments received 100 mg/m^2 ANGIOZYME by daily SC injection. Due of the critical nature of the disease, most progressed and discontinued drug at the first evaluation (week 6). […] Clinical and biomarker results are summarized.
(§3) In RPI0001, ANGIOZYME monotherapy decreased sVEGFR-1 levels in the metastatic breast cancer setting, although there were no responses in this late-stage disease population.

[7] = Phase I clinical trials, tolerability; type: in vivo, human; conditions: doses up to 300 mg/m^2 administered IV or SC
sVEGFR-1 = assay: Phase II monotherapy trial RPI0001, sVEGFR-1 level; type: in vivo, human; conditions: monotherapy 100 mg/m^2 daily SC, metastatic breast cancer patients, by week 6
Experimental: as §2, §3

[8] = tested on: murine mammary (4T1) model; assay: Murine mammary (4T1) model; type: in vivo
Source text: as §1

[9] = tested on: metastatic colorectal cancer; conditions: cited from earlier work

With “ANGIOZYME: stabilized ribozyme that targets the pre-mRNA of vascular endothelial growth factor receptor-1 (VEGFR-1); structure in FIG. 8 (GAGUUGCUGAUGAGGCCGAAAGGCCGAAAGUCUG; stabilized ribozyme, chemical modifications not given here)” the “patients discontinued due to an injection site reaction (ISR)” value ([1]; RPI0003) was “One”, the tolerability ([1]; RPI0003, daily SC injection in combination with IFL) was “well tolerated” and the “toxicity added to the chemotherapy” value ([1]; RPI0003, with the possible exception of increased vascular complications) was “added no toxicity”. The “most frequent adverse experiences” value ([1]; RPI0003 and all other ANGIOZYME studies) was “injection site reactions”, the “interaction with interferon treatment” value [2] was “synergistic” and the “number of peritumoral vessels” value ([2]; HEY, SK-MEL-1, ACHN cell lines) was “reduced”. For the same substance, the tolerability [3] was “well tolerated”, the metastasis [4] was “reduction” and the absorption [5] was “well absorbed”. For the same substance, the “growth of the LLC-HM primary tumor” value (LLC-HM primary tumor) was “inhibited the growth of the LLC-HM primary tumor in a dose-dependent manner”, the “mean vascular density in tumor sections” value (LLC-HM primary tumor; LLC-HM model) was “decreased” and the “number of lung metastases” value (LLC-HM primary tumor; LLC-HM model) was “reduced”. For the same substance, the tumor responses [6] was “no responses”, the tolerability [7] was “well tolerated” and the “change in sVEGFR-1” value (sVEGFR-1) was “significant decrease; also recorded: decreased”. For the same substance, the metastasis [8] was “reduced” and the survival [8] was “increase”.
In the case of “irinotecan/5-fluorouracil/leucovorin [IFL]”, the response rate ([9]; IFL alone, patients who received IFL, good performance status, CT at 12 or 24 weeks) is given as roughly 40%, the “Median time to progression (TTP)” value ([9]; IFL arm of the Pharmacia study) is given as greater than 7.0 months and the “At least Stable at Week 12” value ([9]; N = 192, Pharmacia 0038) is given as 83%. For the same substance, the “At least Stable at Week 24” value ([9]; N = 192, Pharmacia 0038) was 80%, the “Best Overall Response (Week 24)” value ([9]; N = 192, Pharmacia 0038) was 37% and the “Best Overall Response, Confirmed at Week 12” value ([9]; N = 192, Pharmacia 0038) was 35%. For the same substance, the “Best Overall Response, Unconfirmed at Week 12” value ([9]; N = 192, Pharmacia 0038) was 48% and the “Discontinued by Week 12 Due to Disease Progression” value ([9]; N = 192, Pharmacia 0038) was 12%.
